Assay: mn = molality of the nth substance listed, in mol/kg
Settings: 101 kPa, Liquid, Alternating current cell with electrodes

CCCCCCCC[N+](C)(C)CCCCCCCCCCCC[N+](C)(C)CCCCCCCC.[Br-].[Br-] + O
Settings | electrical conductivity [S/m]
298.15 K, m1 = 0.02573 | 0.3337
298.15 K, m1 = 0.02651 | 0.3387
298.15 K, m1 = 0.02727 | 0.3443
298.15 K, m1 = 0.02802 | 0.349
298.15 K, m1 = 0.02877 | 0.3546
298.15 K, m1 = 0.0295 | 0.36
298.15 K, m1 = 0.03022 | 0.3649
298.15 K, m1 = 0.0314 | 0.3728
298.15 K, m1 = 0.03255 | 0.382
298.15 K, m1 = 0.03367 | 0.3883
298.15 K, m1 = 0.03477 | 0.3965
298.15 K, m1 = 0.03689 | 0.4084
298.15 K, m1 = 0.03892 | 0.4221
298.15 K, m1 = 0.04086 | 0.4336
298.15 K, m1 = 0.04272 | 0.4435
298.15 K, m1 = 0.0445 | 0.4525
298.15 K, m1 = 0.04621 | 0.4635
298.15 K, m1 = 0.04785 | 0.4712
298.15 K, m1 = 0.04943 | 0.4799
298.15 K, m1 = 0.05094 | 0.489
298.15 K, m1 = 0.0524 | 0.4951
298.15 K, m1 = 0.05381 | 0.5029
298.15 K, m1 = 0.05517 | 0.5103
298.15 K, m1 = 0.05648 | 0.5162
298.15 K, m1 = 0.05774 | 0.5226
303.15 K, m1 = 0.00388 | 0.06075
303.15 K, m1 = 0.00752 | 0.1306
303.15 K, m1 = 0.01257 | 0.2181
303.15 K, m1 = 0.01415 | 0.2351
303.15 K, m1 = 0.01508 | 0.2505
303.15 K, m1 = 0.01599 | 0.2653
303.15 K, m1 = 0.01688 | 0.2779
303.15 K, m1 = 0.01776 | 0.2879
303.15 K, m1 = 0.01863 | 0.2986
303.15 K, m1 = 0.01948 | 0.3128
303.15 K, m1 = 0.02031 | 0.321
303.15 K, m1 = 0.02194 | 0.3372
303.15 K, m1 = 0.02274 | 0.3504
303.15 K, m1 = 0.02352 | 0.3547
303.15 K, m1 = 0.02429 | 0.3646
303.15 K, m1 = 0.02505 | 0.3691
303.15 K, m1 = 0.02652 | 0.3816
303.15 K, m1 = 0.02725 | 0.3867
303.15 K, m1 = 0.02796 | 0.3925
303.15 K, m1 = 0.02866 | 0.398
303.15 K, m1 = 0.02935 | 0.4046
303.15 K, m1 = 0.03003 | 0.4126
303.15 K, m1 = 0.03114 | 0.4192
303.15 K, m1 = 0.03222 | 0.4277
303.15 K, m1 = 0.03327 | 0.4359
303.15 K, m1 = 0.0343 | 0.4466
303.15 K, m1 = 0.03531 | 0.4517
303.15 K, m1 = 0.03629 | 0.4591
303.15 K, m1 = 0.03725 | 0.4681
303.15 K, m1 = 0.03819 | 0.4739
303.15 K, m1 = 0.03911 | 0.4794
303.15 K, m1 = 0.04 | 0.4859
303.15 K, m1 = 0.04174 | 0.4978
303.15 K, m1 = 0.0434 | 0.5113
303.15 K, m1 = 0.04498 | 0.5211
303.15 K, m1 = 0.04651 | 0.5314
303.15 K, m1 = 0.04797 | 0.5413
303.15 K, m1 = 0.04938 | 0.5513
303.15 K, m1 = 0.05073 | 0.56
303.15 K, m1 = 0.05203 | 0.5681
303.15 K, m1 = 0.05328 | 0.5759
303.15 K, m1 = 0.05448 | 0.5835
308.15 K, m1 = 0.00358 | 0.06093
308.15 K, m1 = 0.00694 | 0.1384
308.15 K, m1 = 0.01011 | 0.2008
308.15 K, m1 = 0.01163 | 0.23
308.15 K, m1 = 0.01311 | 0.2551
308.15 K, m1 = 0.01539 | 0.2922
308.15 K, m1 = 0.01622 | 0.3053
308.15 K, m1 = 0.01704 | 0.3166
308.15 K, m1 = 0.01784 | 0.3262
308.15 K, m1 = 0.01863 | 0.3371

— the NIST ThermoML archive (doi:10.1021/je500804j)
